Columns and labels:
[1] = biological target: T1, nPfu DNA polymerase (Pyrococcus furiosus, UniProt P61875); experiment: PCR using nPfu with oxalate ion and betaine (Example 2-2); format: biochemical; details: 2 mM potassium oxalate, FIG. 12
T1 construct: α-Type Enzyme (Native Pfu); purchased STRATAGENE
T1 sequence (P61875 1-775): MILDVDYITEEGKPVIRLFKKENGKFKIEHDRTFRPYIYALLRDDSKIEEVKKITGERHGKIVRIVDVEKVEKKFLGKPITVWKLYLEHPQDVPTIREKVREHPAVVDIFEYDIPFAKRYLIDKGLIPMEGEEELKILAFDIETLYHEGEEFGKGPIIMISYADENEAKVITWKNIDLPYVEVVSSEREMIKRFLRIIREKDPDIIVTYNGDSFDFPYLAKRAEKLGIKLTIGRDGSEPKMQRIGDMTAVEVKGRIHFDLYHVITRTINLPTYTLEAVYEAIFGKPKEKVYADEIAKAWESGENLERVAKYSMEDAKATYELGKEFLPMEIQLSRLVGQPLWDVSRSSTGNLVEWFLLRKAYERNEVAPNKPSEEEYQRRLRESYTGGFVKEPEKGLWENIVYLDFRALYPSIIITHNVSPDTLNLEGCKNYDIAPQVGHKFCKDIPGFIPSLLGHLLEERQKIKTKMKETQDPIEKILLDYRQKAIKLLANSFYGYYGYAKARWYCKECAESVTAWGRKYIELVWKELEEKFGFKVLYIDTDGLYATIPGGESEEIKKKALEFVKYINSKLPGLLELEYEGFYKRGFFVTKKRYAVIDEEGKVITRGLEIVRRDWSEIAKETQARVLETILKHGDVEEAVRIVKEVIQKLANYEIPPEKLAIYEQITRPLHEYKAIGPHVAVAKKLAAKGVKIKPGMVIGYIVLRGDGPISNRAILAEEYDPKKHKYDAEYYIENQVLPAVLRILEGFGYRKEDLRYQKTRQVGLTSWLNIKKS
Procedure: Oxalate ion and betaine were investigated for their synergistic effectiveness in amplification of a target DNA which cannot be usually amplified by PCR using nPfu polymerase. Potassium oxalate was added to the PCR buffer (20 mM Tris-HCl(pH: 8.75), 10 mM KCl, 10 mM (NH4)2SO4, 2 mM MgSO41 0.1% Triton X-100, 100 μg/ml BSA) supplied with nPfu (STRATAGENE) to attain a final concentration of 2 mM. Also used were 0.2 mM dNTPs, 0.3 μM of a pair of primers of SEQ ID Nos:16 and 17, and 2.5 U nPfu DNA polymerase. 20 ng of genomic DNA derived from human cell line K562 was used as a template. This reaction mixture was subjected to PCR by using GeneAmp2400 (PE Applied Biosystems) to investigate the influence of varying the concentration of betaine added on the PCR results. The PCR conditions were as follows: 1 preliminary cycle of 94° C. for 2 minutes, and then 35 cycles of 94° C. for 15 seconds, 60° C. for 30 seconds and 68° C. for 8.5 minutes.

[2] = system: EX-Taq DNA polymerase; experiment: PCR using EX-Taq DNA polymerase with added salts (Examples 1-1 to 1-3); format: biochemical
Procedure: The effect produced by the addition of oxalate ions was investigated in the PCR using EX-Taq DNA polymerase. A PCR buffer supplied with EX-Taq (TAKARA) and 0.3 μM of a pair of primers of SEQ ID Nos:8 and 9 and 0.2 mM dNTPs were used. PCR was performed by using 1.0 U EX-Taq DNA polymerase and 20 ng of genomic DNA derived from human cell line K562 as a template, with the influence on the PCR result caused by varying the concentration of added oxalate ion being investigated. The PCR conditions were as follows: 1 preliminary reaction of 94° C. for 2 minutes, and then 35 cycles of 94° C. for 15 seconds, 60° C. for 30 seconds and 68° C. for 8.5 minutes. This PCR amplification was performed by using GeneAmp2400 (PE Applied Biosystems).
Salts (potassium chloride, potassium acetate, potassium oxalate, sodium oxalate, potassium sulfate) were investigated for their effectiveness in PCR using EX-Taq DNA polymerase under the same conditions as Example 1. Each salts was used in an amount of 4 to 6 mM of ion equivalent

[3] = biological target: T2, KOD-plus DNA polymerase (Thermococcus kodakarensis, UniProt P77933, DEL407-766/DEL853-1389); format: biochemical, Thermococcus kodakaraensis KOD1
T2 construct: purchased Toyobo
T2 sequence (P77933 other isoform, or with tags, fused parts or gaps DEL407-766/DEL853-1389): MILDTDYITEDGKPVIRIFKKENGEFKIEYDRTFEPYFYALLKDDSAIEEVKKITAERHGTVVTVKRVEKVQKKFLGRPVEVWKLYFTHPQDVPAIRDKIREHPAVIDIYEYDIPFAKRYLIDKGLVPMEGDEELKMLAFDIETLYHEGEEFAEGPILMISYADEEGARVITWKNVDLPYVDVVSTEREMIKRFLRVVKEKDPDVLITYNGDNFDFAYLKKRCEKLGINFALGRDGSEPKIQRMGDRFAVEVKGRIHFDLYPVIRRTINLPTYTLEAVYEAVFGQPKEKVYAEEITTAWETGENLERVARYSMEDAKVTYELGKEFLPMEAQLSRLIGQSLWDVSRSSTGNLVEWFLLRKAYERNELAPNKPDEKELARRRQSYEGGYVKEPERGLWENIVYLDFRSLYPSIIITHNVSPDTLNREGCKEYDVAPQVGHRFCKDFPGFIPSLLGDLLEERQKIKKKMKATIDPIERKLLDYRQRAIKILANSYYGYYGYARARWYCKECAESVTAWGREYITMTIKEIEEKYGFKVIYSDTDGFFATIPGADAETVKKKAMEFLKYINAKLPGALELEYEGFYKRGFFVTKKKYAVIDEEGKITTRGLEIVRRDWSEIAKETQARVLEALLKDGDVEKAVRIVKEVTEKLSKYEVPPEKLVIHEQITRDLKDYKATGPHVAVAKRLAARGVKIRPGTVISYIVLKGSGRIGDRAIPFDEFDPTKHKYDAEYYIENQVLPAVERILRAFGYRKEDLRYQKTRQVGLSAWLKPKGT
Procedure: The effect produced by the addition of oxalate ion to a hot start enzyme was investigated using a hot start enzyme KOD-plus DNA polymerase containing KOD α-type enzyme) and two kinds of KOD antibodies. The PCR buffer supplied with KOD-plus (manufactured by Toyobo), 0.2 mM dNTPs and 0.3 μM of a primer pair of SEQ ID Nos:8 and 9 were used. PCR was performed using 2.5 U KOD-plus DNA polymerase and 20 ng of Genomic DNA derived from human cell line K562 as a template to investigate the influence of varying the concentration of oxalate ion added on the PCR results. The PCR conditions were as follows: 1 preliminary reaction of 94° C. for 2 minutes, and then 35 cycles of 94° C. for 15 seconds, 60° C. for 30 seconds and 68° C. for 8.5 minutes. The PCR was performed using GeneAmp2400 (PE Applied Biosystems).

[4] = biological target: T2, KOD-plus DNA polymerase; format: biochemical, Thermococcus kodakaraensis KOD1; details: salt at 6 mM of ion equivalent, FIG. 9
[5] = biological target: T1, nPfu DNA polymerase; experiment: PCR using nPfu DNA polymerase with added salts (Examples 1-5, 1-6); format: biochemical; details: salt at 4-6 mM of ion equivalent, FIG. 7
Procedure: The effect produced by the addition of oxalate ion in PCR was investigated using nPfu polymerase. A PCR buffer (20 mM Tris-HCl (pH 8.75), 10 mM KCl, 10 mM (NH4) 2SO4, 2 mM MgSO4, 0.1% Triton X-100, 100 μg/ml BSA) attached to nPfu (STRATAGENE), 0.2 mM of dNTPs, and 0.3 μM of a pair of primers of SEQ ID NOs:12, and 13 were used. PCR was performed by using 2.5 U nPfu DNA polymerase and 20 ng of genomic DNA derived from human cell line K562 as a template, with the influence on the PCR result caused by varying the concentration of oxalate ion being investigated. PCR was performed by using GeneAmp2400 (PE Applied Biosystems) with the following conditions: 1 preliminary reaction of 94° C. for 2 minutes, and then 35 cycles of 94° C. for 15 seconds, 60° C. for 30 seconds and 68° C. for 8 minutes.
Salts (potassium chloride, potassium acetate, potassium oxalate, potassium sulfate) were tested for their effectiveness in PCR using nPfu DNA polymerase under the same conditions as Example 1-5.

SMILES | amplification of target DNA [1] | amplification of target DNA (electrophoresis pattern) ([2]; carboxylate salts, FIG. 3) | amplification of target DNA (electrophoresis pattern) ([2]; salt at 4 to 6 mM of ion equivalent, FIG. 2) | amount of the target DNA amplified ([3]; 5 mM of potassium oxalate) | optimal concentration of potassium oxalate ([3]; FIG. 8) | effect on extra bands and target amplification ([3]; in the presence of potassium oxalate, FIG. 8) | amplification of target DNA (electrophoresis pattern) [4] | amplification of target DNA (electrophoresis pattern) [5]
C[N+](C)(C)CC(=O)[O-] [betaine, trimethylglycine] | amplification of the target DNA was observed |  |  |  |  |  |  | 
O=C([O-])C(=O)[O-].[K+].[K+] [potassium oxalate] |  | amplification of the target DNA was observed | Amplification was observed | a decrease in the amount of the target DNA amplified was found | about 3 mM | no extra bands were observed and only the target DNA was amplified | Amplification was observed | amplification of the target DNA observed
